Test results reported in ChEMBL document CHEMBL4118272, “The inhibitory effect of kokusaginine on the growth of human breast cancer cells and MDR-resistant cells is mediated by the inhibition of tubulin assembly” (Bioorg Med Chem Lett, 2018).
Activity calls are given as the source filed them. The calls are words filed in the database; no cut-off is given here.

How the values were obtained:
[1] = organism: Sus scrofa; experiment: Inhibition of porcine MAP-rich tubulin polymerization at 20 uM measured every 30 secs for 30 mins
[2] = organism: Homo sapiens; conditions: 10 uM
Description: Inhibition of P-gp in human MCF7/ADR cells assessed as increase in intracellular Rh123 accumulation at 10 uM after 2 hrs by flow cytometry

[3] = Growth inhibition of human MDA-MB-231/ADR cells after 48 hrs by MTT assay; type: functional; conditions: MDA-MB-231, 48 h
[4] = Resistance factor, ratio of IC50 for human MCF7/ADR cells to IC50 for human MCF7 cells; type: functional
[5] = test system: MCF7; experiment: Growth inhibition of human MCF7 cells after 48 hrs by MTT assay; type: functional, cell-based; conditions: MCF7, 48 h
[6] = test system: NCI/ADR-RES; experiment: Growth inhibition of human MCF7/ADR cells after 48 hrs by MTT assay; type: functional, cell-based
[7] = Resistance factor, ratio of IC50 for human MDA-MB-231/ADR cells to IC50 for human MDA-MB-231 cells; type: functional
[8] = target: T1, Tubulin (Homo sapiens) (UniProt P68371+Q9H4B7+P0DPH7+P68366+Q13509+Q71U36+P04350+Q3ZCM7+P07437+P68363+Q9BQE3+Q6PEY2+Q13885+Q9BVA1+Q9BUF5); experiment: Displacement of [3H]colchicine from tubulin (unknown origin) at 1 uM after 10 mins relative to control; type: protein-complex assay
[9] = organism: Sus scrofa; experiment: Inhibition of porcine MAP-rich tubulin polymerization measured every 30 secs for 30 mins
[10] = test system: MDA-MB-231; experiment: Growth inhibition of human MDA-MB-231 cells after 48 hrs by MTT assay; type: functional, cell-based; conditions: MDA-MB-231, 48 h
[11] = test system: NCI/ADR-RES; experiment: Induction of apoptosis in human MCF7/ADR cells at 12 uM after 24 hrs by Annexin V-FITC/PI double staining based flow cytometry relative to control; type: functional
[12] = target: T1, Tubulin (Homo sapiens); experiment: Displacement of [3H]colchicine from tubulin (unknown origin) at 5 uM after 10 mins relative to control; type: protein-complex assay
[13] = test system: NCI/ADR-RES; experiment: Downregulation of P-gp expression level in human MCF7/ADR cells assessed as P-gp mRNA level up to 24 uM by qRT-PCR analysis (reference value: 17.5); type: functional
[14] = test system: MCF7; experiment: Induction of apoptosis in human MCF7 cells at 6 uM after 24 hrs by Annexin V-FITC/PI double staining based flow cytometry relative to control; type: functional
[15] = test system: MCF7; experiment: Downregulation of P-gp protein expression level in human MCF7 cells assessed as P-gp protein level up to 24 uM by Western blot analysis; type: functional
[16] = test system: MCF7; experiment: Induction of apoptosis in human MCF7 cells at 12 uM after 24 hrs by Annexin V-FITC/PI double staining based flow cytometry relative to control; type: functional
[17] = test system: NCI/ADR-RES; experiment: Downregulation of P-gp mRNA level in human MCF7/ADR cells by qRT-PCR analysis; type: functional, cell-based
[18] = test system: NCI/ADR-RES; experiment: Downregulation of P-gp protein expression level in human MCF7/ADR cells assessed as P-gp protein level up to 24 uM by Western blot analysis (reference value: 0.67); type: functional
[19] = test system: MCF7; experiment: Induction of apoptosis in human MCF7 cells at 24 uM after 24 hrs by Annexin V-FITC/PI double staining based flow cytometry relative to control; type: functional
[20] = organism: Homo sapiens; experiment: Inhibition of P-gp in human MCF7/ADR cells assessed as increase in intracellular Rh123 accumulation at 24 uM after 2 hrs by flow cytometry; type: cell-based
[21] = test system: NCI/ADR-RES; experiment: Induction of apoptosis in human MCF7/ADR cells at 6 uM after 24 hrs by Annexin V-FITC/PI double staining based flow cytometry relative to control; type: functional
[22] = target: Tubulin; experiment: Inhibition of tubulin (unknown origin) polymerization preincubated for 15 mins followed by GTP addition measured for 20 mins by turbidimetric analysis; type: protein-complex assay, Homo sapiens
[23] = test system: NCI/ADR-RES; experiment: Induction of apoptosis in human MCF7/ADR cells at 24 uM after 24 hrs by Annexin V-FITC/PI double staining based flow cytometry relative to control; type: functional

For COc1cc2c(c(OC)c1OC)-c1ccc(OC)c(=O)cc1[C@@H](NC(C)=O)CC2, the inhibition [1] was “Active”.

With COc1ccc(CCN(C)CCCC(C#N)(c2ccc(OC)c(OC)c2)C(C)C)cc1OC (stereo not drawn) the inhibition [2] was “Active”.

For COc1cccc2c1C(=O)c1c(O)c3c(c(O)c1C2=O)C[C@@](O)(C(=O)CO)C[C@@H]3O[C@H]1C[C@H](N)[C@H](O)[C@H](C)O1.Cl [DOXORUBICIN HYDROCHLORIDE], the IC50 [3] was 49.8 µM, the “Ratio IC50” value [4] was 29.5 and the IC50 [5] was 1.72 µM. For the same compound, the IC50 [6] was 50.7 µM and the “Ratio IC50” value [7] was 22.72.

In the case of COc1cc2nc3occc3c(OC)c2cc1OC [KOKUSAGININE], the IC50 [3] is reported as 10.2 µM, the “Ratio IC50” value [4] is reported as 0.64 and the inhibition [8] is reported as 92%. For the same compound, the inhibition [9] was “Dose-dependent effect”, the IC50 [10] was 9.01 µM and the IC50 [5] was 7.23 µM. It also gave an IC50 [6] of 4.62 µM, an Activity [11] of 45.35% and an inhibition [12] of 98%. The Activity [13] was 6.4, the Activity [14] was 12.08% and the Activity [15] was 0.02 - 0.09. The Activity [16] was 21.63%, the Activity [17] was “Dose-dependent effect” and the Activity [18] was 0.19. For the same compound, the Activity [19] was 39.52%, the inhibition [20] was “Active” and the Activity [21] was 28.16%. The “Ratio IC50” value [7] was 1.13, the IC50 [22] was 0.82 µM and the Activity [23] was 63.29%.
